In paper PMC3235172, “Distinct Expression Profiles and Different Functions of Odorant Binding Proteins in Nilaparvata lugens Stål” (PLoS ONE, 2011):
Read-outs that look alike come from different tables or passages of the source.

Tests used:
NlugOBP2 [1] = test: Competitive fluorescence binding assay (1-NPN probe) with recombinant NlugOBP2; parameters: species or system Nilaparvata lugens; conditions: protein and 1-NPN at 2 µM
Description: (§1) The excitation wavelength was 337 nm and the emission spectrum was recorded between 370 and 460 nm by a fluorescence spectrometer (Hitachi F-7000 Fluorescence Spectrophotometer, Japan) with a 1 cm light path quartz cuvette and 10 nm slits for both excitation and emission.

NlugOBP3 = NlugOBP3 (Nilaparvata lugens, UniProt B6E9U3); test: Competitive fluorescence binding assay (1-NPN probe) with recombinant NlugOBP3
NlugOBP3, sequence (B6E9U3 entry or part of it): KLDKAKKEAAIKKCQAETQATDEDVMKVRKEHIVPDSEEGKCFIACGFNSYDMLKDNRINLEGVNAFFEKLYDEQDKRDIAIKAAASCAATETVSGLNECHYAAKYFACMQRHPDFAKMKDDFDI
Description: as §1

NlugOBP1 = NlugOBP1 (Nilaparvata lugens, UniProt B6E9U1); test: Competitive fluorescence binding assay (1-NPN probe) with recombinant NlugOBP1
NlugOBP1, sequence (B6E9U1 entry or part of it): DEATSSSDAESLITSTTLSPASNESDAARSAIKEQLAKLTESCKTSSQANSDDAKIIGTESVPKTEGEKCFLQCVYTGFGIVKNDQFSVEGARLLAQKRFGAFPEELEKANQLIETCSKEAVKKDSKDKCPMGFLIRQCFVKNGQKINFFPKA
Description: as §1

NlugOBP2 [2] = biological target: NlugOBP2 (Nilaparvata lugens, UniProt B6E9U2); test: Competitive fluorescence binding assay (1-NPN probe) with recombinant NlugOBP2
NlugOBP2 (Nilaparvata lugens, UniProt B6E9U2), sequence (B6E9U2 entry or part of it): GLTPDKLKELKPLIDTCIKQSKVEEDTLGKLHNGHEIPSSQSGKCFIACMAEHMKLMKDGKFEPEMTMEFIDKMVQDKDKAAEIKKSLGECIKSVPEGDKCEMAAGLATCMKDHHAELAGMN
Description: as §1

[3] = calculated from IC50, protein and 1-NPN at 2 µM, pH 7.4, read-out: OBP2 Ki
[4] = displacement of 1-NPN, protein and 1-NPN at 2 µM, 50 mM Tris-HCl pH 7.4, read-out: OBP2 IC50
[5] = calculated from IC50, protein and 1-NPN at 2 µM, pH 7.4, read-out: OBP3 Ki
[6] = displacement of 1-NPN, protein and 1-NPN at 2 µM, 50 mM Tris-HCl pH 7.4, read-out: OBP3 IC50
[7] = calculated from IC50, protein and 1-NPN at 2 µM, pH 7.4, read-out: OBP1 Ki
[8] = displacement of 1-NPN, protein and 1-NPN at 2 µM, 50 mM Tris-HCl pH 7.4, read-out: OBP1 IC50

Compound	Ki (NlugOBP2 [1]; calculated from IC50, pH 7.4, read-out: OBP2 Ki) [µM]	IC50 (NlugOBP2 [1]; displacement of 1-NPN, 50 mM Tris-HCl pH 7.4, read-out: OBP2 IC50) [µM]	IC50 (NlugOBP3) [µM]	Ki (NlugOBP3) [µM]	IC50 (NlugOBP1) [µM]	Ki (NlugOBP1) [µM]	binding ability with NlugOBP2 (in words) (NlugOBP2 [2])	Ki (NlugOBP2 [2]; [3]) [µM]	IC50 (NlugOBP2 [2]; [4]) [µM]	binding ability with NlugOBP3 (in words) (NlugOBP3)	Ki (NlugOBP3; [5]) [µM]	IC50 (NlugOBP3; [6]) [µM]	binding ability with NlugOBP1 (in words) (NlugOBP1)	Ki (NlugOBP1; [7]) [µM]	IC50 (NlugOBP1; [8]) [µM]	IC50 (NlugOBP2 [2]) [µM]	Ki (NlugOBP2 [2]) [µM]	Ki (NlugOBP3; read-out: Ki with NlugOBP3) [µM]
C[C@@H]1CC[C@H]2C(C)(C)[C@H]3C[C@@]12CC[C@@]3(C)O [Ligand 9, Cedrol]	30.1	35	19.7	14.1	30	25.6	–	–	–	–	–	–	–	–	–	–	–	–
CCCCCCCCCCCCCC(C)=O [Ligand 16, 2-Pentadecanone]	–	–	–	–	–	–	relatively high binding abilities	17	19.8	relatively high binding abilities	9.6	13.5	relatively high binding abilities	25.3	29.7	–	–	–
CC(=O)c1ccccc1 [Ligand 17, Acetophenone]	–	–	–	–	–	–	relatively high binding abilities	27.8	32.3	relatively high binding abilities	23.1	32.4	relatively high binding abilities	29.3	34.3	–	–	–
CCCCCOC(C)=O [Ligand 18, Amyl acetate]	–	–	–	–	–	–	–	> 50	> 50	–	> 50	> 50	–	> 50	> 50	–	–	–
CC(=O)OCCC(C)C [Ligand 19, Isoamyl acetate]	–	–	–	–	–	–	–	> 50	> 50	none	> 50	> 50	some affinities	30.5	35.7	–	–	–
CCC/C=C/COC(C)=O [Ligand 20, (E)-2-Hexenyl acetate]	–	–	–	–	–	–	–	25.2	29.3	–	22.4	31.3	–	> 50	> 50	–	–	–
CCCCCCOC(C)=O [Ligand 21, Hexyl acetate]	–	–	–	–	–	–	–	> 50	> 50	–	22	30.8	–	37.9	44.4	–	–	–
CC/C=C\CCOC(C)=O [Ligand 22, (Z)-3-Hexenyl acetate]	–	–	–	–	–	–	–	32.5	37.8	–	27.1	38	–	> 50	> 50	–	–	–
CCOC(=O)c1ccccc1 [Ligand 23, Ethyl benzoate]	–	–	39	27.9	> 50	> 50	–	–	–	–	–	–	–	–	–	> 50	> 50	–
COC(=O)c1ccccc1 [Ligand 24, Methyl benzoate]	–	–	> 50	> 50	> 50	> 50	–	–	–	–	–	–	–	–	–	> 50	> 50	–
COC(=O)c1ccccc1O [Ligand 25, Methyl salicylate]	–	–	44.8	32	> 50	> 50	–	–	–	–	–	–	–	–	–	37.4	32.2	–
CCCCCCCCCCCC(=O)O [Ligand 26, Dodecanoic acid]	–	–	13.9	9.9	12.1	10.3	–	–	–	–	–	–	–	–	–	> 50	> 50	–
CCCCCCCCCCCCCCCC(=O)O [Ligand 27, Palmitic acid]	–	–	–	–	–	–	–	> 50	> 50	–	7.2	10.1	–	22.1	25.9	–	–	–
CCCCCCCCCCCCCCCCCCCC [Ligand 28, Eicosane]	–	–	–	–	–	–	–	> 50	> 50	–	> 50	> 50	–	> 50	> 50	–	–	–
CCCCCCCCCCCCC [Ligand 29, Tridecane]	–	–	–	–	–	–	–	> 50	> 50	–	> 50	> 50	–	> 50	> 50	–	–	–
CCCCCCCCCCCCCCCCC [Ligand 30, Heptadecane]	–	–	–	–	–	–	–	> 50	> 50	–	> 50	> 50	–	> 50	> 50	–	–	–
CCCCCCCCCCCCCCCCCC [Ligand 31, Octadecane]	–	–	–	–	–	–	–	> 50	> 50	–	> 50	> 50	–	> 50	> 50	–	–	–
CCCCCCCCCCCCCC [Ligand 32, Tetradecane]	–	–	–	–	–	–	–	> 50	> 50	–	> 50	> 50	–	> 50	> 50	–	–	–
C=CC(=C)CCC=C(C)C [Ligand 33, Myrcene]	–	–	–	–	–	–	–	29.1	33.9	–	–	10.1	–	16.2	19	–	–	7.2
CC1=CC[C@@H]2C[C@H]1C2(C)C [Ligand 34, (+)-α-Pinene]	–	–	16.1	11.5	36.4	31.1	–	–	–	–	–	–	–	–	–	> 50	> 50	–
C=C(C)[C@H]1CC=C(C)CC1 [Ligand 35, (R)-(+)-Limonene]	–	–	–	–	–	–	–	> 50	> 50	considerable affinities	23.6	33.1	–	27.6	32.4	–	–	–
C=C1CC/C=C(\C)CC[C@@H]2[C@@H]1CC2(C)C [Ligand 36, β-Caryophyllene]	–	–	37.4	26.7	> 50	> 50	–	–	–	considerable affinities	–	–	–	–	–	30.1	25.9	–
CC(=O)/C=C/C1=C(C)CCCC1(C)C [Ligand 37, β- Ionone]	–	–	8.5	6.1	25.2	21.5	relatively high binding abilities	–	–	relatively high binding abilities	–	–	relatively high binding abilities	–	–	25.8	22.2	–
CC(C)c1ccccc1 [Ligand 38, Cumene]	–	–	37.2	26.6	> 50	> 50	–	–	–	–	–	–	–	–	–	39.2	33.7	–
CC12CCC(CC1)C(C)(C)O2 [Ligand 40, Cineole]	–	–	–	–	–	–	–	> 50	> 50	–	> 50	> 50	–	> 50	> 50	–	–	–
CC(C)(C)c1cccc(C(C)(C)C)c1O [Ligand 41, 2,6-Di-tert-butylphenol]	–	–	–	–	–	–	–	> 50	> 50	–	9.5	13.3	–	19	22.3	–	–	–
